Holding throughout (assay): inhibition of tumour cell growth, NCI panel, 48 h
Assay [1] concerns A549.
Assay [2] has as its system COLO 205.
Assay [3] relates to DU-145.
Assay [4] concerns HCT-15.
For assay [5], the system named is HL-60.
The subject of assay [6] is HOP-62.
Assay [7] concerns HT-29.
Assay [8] relates to IGROV-1.
Assay [9] relates to K562.
The subject of assay [10] is KM12.
Assay [11] has as its system MDA-MB-231.
For assay [12], the system named is NCI-H23.
Assay [13] has as its system NCI/ADR-RES.
Assay [14] relates to PC-3.
Assay [15] deals with RPMI-8226.
Assay [16] concerns SF-268.
For assay [17], the system named is SF-295.
Assay [18] has as its system SK-MEL-5.
Assay [19] concerns SW-620.
Assay [20] has as its system TK-10.

SMILES strings stand for the structures.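 Briefly, cells in 96-well plates were exposed to five compound concentrations for 48 h, and endpoints were estimated by linear interpolation. GI50 is the concentration that inhibits growth by half.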 Calls of active or inactive are those of the source. Cut-off read from the data, not from the text of the source: active = GI50 up to about 1.1 µM and inactive = higher.

Take `O=C1Sc2ccccc2NC1=C(C(=O)c1ccccc1)C(=O)c1ccccc1`: the GI50 in assay [1] is 27.5 µM (inactive); in [2], 37.4 µM (inactive); in [3] it was 21.2 µM (inactive); in assay [4] it was 19.5 µM; in assay [5], 1.87 µM (inactive); in assay [6] it was 8.75 µM (inactive). In addition, the GI50 was 22.5 µM (inactive) in [7]; 38.4 µM (inactive) in assay [8]; 2.88 µM (inactive) in assay [9]; 31.6 µM (inactive) in [10]; 65.6 µM (inactive) in [11]; 22.6 µM (inactive) in assay [12]. Besides, the GI50 in assay [13] was 22.3 µM (inactive); in assay [14], 20.6 µM (inactive); in assay [15], 12.6 µM (inactive); in [16], 14.9 µM (inactive); in assay [17], 20.6 µM (inactive); in assay [18], 16.8 µM (inactive). Further, the results for the GI50 in [19] and in [20] were 30.2 µM (inactive) and 26.1 µM (inactive), respectively.

On to `C/C1=C\CC/C(C)=C/C=C(/C(C)C)CC/C(C(=O)O)=C/CC1` [CROTOCEMBRANEIC ACID], for which the GI50 in [1] is 34.3 µM (inactive); in assay [2], 19.9 µM (inactive); in assay [3], 61.2 µM (inactive); in [4], 37.8 µM; in [5], 33 µM (inactive); in assay [6], 29.6 µM (inactive). Besides, the GI50 in assay [7] is 46.7 µM (inactive); in assay [8] it was 61.1 µM (inactive); in assay [9], 33.9 µM (inactive); in assay [10] it was 42.9 µM (inactive); in assay [11] it was 56.5 µM (inactive); in [12], 36.5 µM (inactive). Moreover, the GI50 in assay [13] was 44.8 µM (inactive); in assay [14] it was 40.2 µM (inactive); in [15] it was 22.8 µM (inactive); in assay [16], 72.8 µM (inactive); in [17] it was 26.7 µM (inactive); in [18], 36 µM (inactive). The results for the GI50 in assay [19] and in assay [20] were 42.3 µM (inactive) and 56.8 µM (inactive), respectively.

(Values after ChEMBL document CHEMBL1201862, “PubChem BioAssay data set” (2004).)
